Values after ≈ are worked out from the molar mass of the structure shown.

The text below walks through data of US7247295B2, “Use of 1,2-decandiol for combating germs causing body odor” (DRAGOCO Gerberding & Co. AG, priority 2001, dated 2007).

Holding throughout (type): cell-based
The test system of assay [1] is Brevibacterium epidermidis ATCC 35514. Kind of assay: MIC determination, agar dilution method (DIN 58 940/58 944). The note with it: ATCC35514, Mueller-Hinton agar, aerobic, 18 h at 36° C., pure substance. On the procedure:
(§1) To prepare various test concentrations 2.6 ml of a 3.3% stock solution (3.3 g 1,2-decanediol or comparison substance in 100 ml ethanol (96% in H2O; Merck, Cat. no. 1.00971)) was used at the starting material in each case. Further test concentrations (diluted sample) in the form of a geometric dilution series were prepared by progressive 2:1 dilution with ethanol (96%; Merck, Cat. no. 1.00971). Determination of the antimicrobial action of 1,2-decanediol (or of a comparison substance) was carried out with the aid of the agar dilution method based on DIN 58 940/ICS and DIN 58 944/ICS. Petri dishes 5.5 cm in diameter were filled with 8.7 ml freshly prepared Mueller-Hinton agar (Merck, Cat. no. 1.05437 or Wilkins-Chalgren agar boillon (sic), Oxoid, Cat. no. CM 643, supplemented with 10 g agar-agar/litre) kept liquid at 50° C., to which in each case 0.3 ml of the particular sample, that is to say 3.3% (V/V) based on the total volume of agar and sample, was added. By means of this further dilution of the undiluted stock solution and of the already diluted samples with the test agar (0.3 ml of the stock solution or of the corresponding diluted sample+8.7 ml agar) 30-fold lower end concentrations were prepared in each case (when using the stock solution an initial concentration of 1,100 ppm results). The concentrations given below are based on the pure substance and have been converted to ppm. 2 agar plates were cast per test concentration and nutrient medium. After solidification and drying (about 1 h at 37° C.), the test plates were inoculated in point form with, in each case, 1 μl of the test organism suspensions listed below. To check purity and identity, the aerobically growing bacteria Brevibacterium epidermidis, Corynebacterium xerosis; and Staphylococcus epidermidis were cultured on Columbia blood agar (BioMérieux, Cat. no. 43049). Further details on the test organisms can be taken from Table 2. [table] The preparation of the test organism suspensions of the test organisms for Brevibacterium epidermidis, Corynebacterium xerosis, and Staphylococcus epidermidis was carried out by incubation of Mueller-Hinton bouillon (Merck, Cat. no. 1.10293), which had been inoculated with a few individual colonies of the particular test organisms, at 36° C. After a distinct turbidity had been achieved, sterile nutrient bouillon was added to the suspensions in such an amount that the turbidity thereof corresponded to McFarland Standard 0.5 (approx. 10^8 CFU/ml). The inoculated plates were incubated under the conditions given in Table 3 and were then assessed. The MIC (minimum inhibitory concentration) was considered to be the lowest active compound concentration with which there is macroscopically no growth. Minimum, barely visible growth or a few small individual colonies were assessed as inhibition. [table] Suspensions of the microorganisms described above were incubated in accordance with the general test conditions described under 1. and the MIC values of 1,2-decanediol were determined (see Table 4). For reference purposes the MIC values for 1,2-octanediol were also determined.
(In general: In agar dilution the substance is mixed into plates at graded concentrations.)

Assay [2] concerns Corynebacterium xerosis ATCC 7711. The assay is described as above. The note with it: ATCC7711, Mueller-Hinton agar, aerobic, 18 h at 36° C., pure substance. On the procedure: as §1
The subject of assay [3] is Staphylococcus epidermidis ATCC 12228. The description is as above. The note with it: ATCC12228, Mueller-Hinton agar, aerobic, 18 h at 36° C., pure substance. On the procedure: as §1
Assay [4] concerns Corynebacterium xerosis (C. xerosis 7711). Kind of assay: Growth curve, suspension test. To be noted: concentration 0.3% in AC medium; incubated 20, 60 and 180 min; compared with 1,2-octanediol and farnesol. On the procedure: • AC medium: 37 g brain heart infusion, 5 g glucose, 1 ml Tween 80, made up to 1 l with H2O. Test Substances: • 1,2-Octanediol (0.3%) • 1,2-Decanediol (0.3%) • Farnesol (0.3%) Control: • AC medium without active compound Test Solutions: • Relevant test substance in AC medium Suspension Test (see FIG. 1) 60 ml AC medium were inoculated with 0.4 ml of a fresh overnight culture of the test organism Corynebacterium xerosis (C. xerosis 7711). The culture vessel was shaken at 30° C. and 250 rpm until a cell density of 10^5 to 10^6 cells/ml had been reached. The test substances were weighed out and in each case dissolved in 2.5 ml AC medium with brief heating to 60° C. The test solutions obtained in this way were then added to 2.5 ml bacterial suspension in each case and the mixtures were incubated for 20, 60 and 180 min maintaining the growth conditions. 100 μl of the incubated test solutions were then taken and the bacterial titre determined by plating-out on nutrient medium.

Assay [5] deals with Staphylococcus epidermidis, Corynebacterium xerosis, Brevibacterium epidermidis. Kind of assay: MIC determination, agar dilution method, summary over the three test organisms. The note with it: summary of Table 4 over all three test organisms. The method, then: To prepare various test concentrations 2.6 ml of a 3.3% stock solution (3.3 g 1,2-decanediol or comparison substance in 100 ml ethanol (96% in H2O; Merck, Cat. no. 1.00971)) was used at the starting material in each case. Further test concentrations (diluted sample) in the form of a geometric dilution series were prepared by progressive 2:1 dilution with ethanol (96%; Merck, Cat. no. 1.00971). Determination of the antimicrobial action of 1,2-decanediol (or of a comparison substance) was carried out with the aid of the agar dilution method based on DIN 58 940/ICS and DIN 58 944/ICS. […] The inoculated plates were incubated under the conditions given in Table 3 and were then assessed. […] Minimum, barely visible growth or a few small individual colonies were assessed as inhibition. Suspensions of the microorganisms described above were incubated in accordance with the general test conditions described under 1. and the MIC values of 1,2-decanediol were determined (see Table 4). For reference purposes the MIC values for 1,2-octanediol were also determined.

In general, MIC refers to the smallest concentration in the dilution series that meets the test's criterion for growth inhibition. Read a high MIC as a less susceptible organism. Consider `CCCCCCCCC(O)CO` (stereo not drawn) [1,2-Decanediol, 1,2-decanediol], for which the figures for the MIC in assay [1], in assay [2] and in assay [3] were 450 µg/mL (≈ 2.58 mM), 225 µg/mL (≈ 1.29 mM) and 225 µg/mL (≈ 1.29 mM), respectively. Also, the “effectiveness in growth curve (bacterial titre)” value in assay [4] is listed as “by far the greatest effectiveness of the substances tested”. The “MIC values (over the three test organisms)” value in assay [5] was “distinctly lower”.
Regarding `CCCCCCC(O)CO` (stereo not drawn) [1,2-Octanediol, 1,2-octanediol, reference compound], the MIC in assay [1] is 3600 µg/mL (≈ 24.6 mM); in assay [2], 3600 µg/mL (≈ 24.6 mM); in assay [3], 1800 µg/mL (≈ 12.3 mM); in assay [5], 1800 to 3600 µg/mL (≈ 12.3 to 24.6 mM).
